According to the supplement of paper PMC11451515:

Columns and labels:
Details in all cases: 48 h
SEM cells [1] = experiment: cell viability relative to DMSO control; higher = less cytotoxic
How it was run: (§1)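 Viability values are per-plate percentages of DMSO wells, with background from cell-free wells. Library compounds in DMSO were pin-dosed, in an 11-point threefold series from 47 μM to 0.79 nM, onto NOMO1 or SEM (500 cells/well) or P12-Ichikawa (1000 cells/well) leukemia cells in 1536-well plates (5 μl). Those cells had been adapted for at least four passages in each medium, and CellTiter-Glo One luminescence was read after 48 h at 37°C.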

SEM cells [2] = experiment: AUC of viability dose-response curve (% viability x log10 dose units); higher = less sensitive
How it was run: (§2)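 Seeding of medium-adapted leukemia cells was at 500 or 1000 cells/well in 1536-well plates, followed by 48 h at 37°C with library compounds in DMSO at 11 threefold doses from 47 μM to 0.79 nM. CellTiter-Glo One luminescence was normalised per plate to DMSO and cell-free wells and fitted as a four-parameter log-logistic function of log10 dose. Area under the curve was integrated by trapezoidal rule, with curves exceeding full viability scaled and curves failing quality control removed.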

P12-Ichikawa [3] = experiment: as above
How it was run: as §2

NOMO1 = experiment: as above
How it was run: as §2

P12-Ichikawa [4] = experiment: cell viability relative to DMSO control; higher = less cytotoxic
How it was run: as §1

CC(C)(O)CCc1ccc(OCc2cc(-c3cccc(OC(F)F)c3)c3ncccc3c2)cc1
SEM cells [1], HPLM + 10% dialyzed FBS
Details	cell viability [%]
0.000781 µM	96
0.00234 µM	98.7
0.00702 µM	108
0.0211 µM	118
0.0632 µM	113
0.19 µM	126
0.569 µM	115
1.71 µM	127
5.12 µM	137
15.4 µM	119
46.1 µM	134

AUC of viability dose-response curve
Details	NOMO1	P12-Ichikawa [3]	SEM cells [2]
HPLM + 10% dialyzed FBS	468	466	435
RPMI 5 mM glucose + 10% FBS	457	457	445
RPMI 5 mM glucose + 10% dialyzed FBS	460	456	469

C=C1/C(=C/C=C2\CCCC3(C)[C@@H]([C@H](C)/C=C/C=C/C(O)(CC)CC)CC[C@@H]23)C[C@@H](O)C[C@@H]1O (stereo partly drawn)
AUC of viability dose-response curve
Details	NOMO1	P12-Ichikawa [3]	SEM cells [2]
HPLM + 10% dialyzed FBS	437	463	463
RPMI 5 mM glucose + 10% FBS	422	451	460
RPMI 5 mM glucose + 10% dialyzed FBS	445	455	448

CC(C)(C)c1nc(-c2cccc(N[S+](=O)([O-])c3c(F)cccc3F)c2F)c(-c2ccnc(N)n2)s1
AUC of viability dose-response curve
Details	NOMO1	P12-Ichikawa [3]	SEM cells [2]
HPLM + 10% dialyzed FBS	423	428	439
RPMI 5 mM glucose + 10% FBS	447	409	430
RPMI 5 mM glucose + 10% dialyzed FBS	434	385	425

COc1ccc(COc2cc3oc(=O)c4cc(C(C)O)ccc4c3cc2OC)cc1 (stereo not drawn)
AUC of viability dose-response curve
Details	NOMO1	P12-Ichikawa [3]	SEM cells [2]
HPLM + 10% dialyzed FBS	446	457	451
RPMI 5 mM glucose + 10% FBS	449	444	450
RPMI 5 mM glucose + 10% dialyzed FBS	455	434	461

O=C(/C=C/c1ccc(CN(CCO)CCc2c[nH]c3ccccc23)cc1)NO
AUC of viability dose-response curve
Details	NOMO1	P12-Ichikawa [3]	SEM cells [2]
HPLM + 10% dialyzed FBS	296	275	262
RPMI 5 mM glucose + 10% FBS	295	271	261
RPMI 5 mM glucose + 10% dialyzed FBS	303	277	269

O=C(CCCCCCNC(=O)c1cnc(N(c2ccccc2)c2ccccc2)nc1)NO
AUC of viability dose-response curve
Details	NOMO1	P12-Ichikawa [3]	SEM cells [2]
HPLM + 10% dialyzed FBS	417	393	399
RPMI 5 mM glucose + 10% FBS	422	386	390
RPMI 5 mM glucose + 10% dialyzed FBS	426	382	392

COc1ccc2cc3[n+](cc2c1OC)CCc1cc2c(cc1-3)OCO2
AUC of viability dose-response curve
Details	NOMO1	P12-Ichikawa [3]	SEM cells [2]
HPLM + 10% dialyzed FBS	431	429	445
RPMI 5 mM glucose + 10% FBS	441	390	437
RPMI 5 mM glucose + 10% dialyzed FBS	442	411	428

CC[C@@H]1C(=O)N(C)c2cnc(Nc3ccc(C(=O)NC4CCC(N5CCN(CC6CC6)CC5)CC4)cc3OC)nc2N1C(C)C (stereo partly drawn)
AUC of viability dose-response curve
Details	NOMO1	P12-Ichikawa [3]	SEM cells [2]
HPLM + 10% dialyzed FBS	276	201	199
RPMI 5 mM glucose + 10% FBS	259	225	227
RPMI 5 mM glucose + 10% dialyzed FBS	259	225	221

Cc1nc(NC(=O)N2CCC[C@H]2C(N)=O)sc1-c1csc(C(C)(C)C)n1
AUC of viability dose-response curve
Details	NOMO1	P12-Ichikawa [3]	SEM cells [2]
HPLM + 10% dialyzed FBS	323	331	309
RPMI 5 mM glucose + 10% FBS	346	334	302
RPMI 5 mM glucose + 10% dialyzed FBS	335	350	312

C[C@@H]1C/C=C/C=C/C=C/C=C/[C@@H](O[C@@H]2O[C@H](C)[C@@H](O)[C@H](N)[C@@H]2O)C[C@@H]2O[C@](O)(C[C@@H](O)C[C@@H]3O[C@H]3/C=C/C(=O)O1)C[C@H](O)[C@H]2C(=O)O
SEM cells [1], HPLM + 10% dialyzed FBS
Details	cell viability [%]
0.000781 µM	108
0.00234 µM	120
0.00702 µM	103
0.0211 µM	129
0.0632 µM	131
0.19 µM	119
0.569 µM	124
1.71 µM	106
5.12 µM	115
15.4 µM	120
46.1 µM	114

AUC of viability dose-response curve
Details	NOMO1	P12-Ichikawa [3]	SEM cells [2]
HPLM + 10% dialyzed FBS	449	439	475
RPMI 5 mM glucose + 10% FBS	460	466	461
RPMI 5 mM glucose + 10% dialyzed FBS	457	461	462

O=C(NCCCCN1CCOCC1)c1cc2ccccc2o1
cell viability [%]
Details	HPLM + 10% dialyzed FBS	RPMI 5 mM glucose + 10% FBS	RPMI 5 mM glucose + 10% dialyzed FBS
P12-Ichikawa [4], 0.000781 µM	119	115	123
P12-Ichikawa [4], 0.00234 µM	122	122	128
P12-Ichikawa [4], 0.00702 µM	119	120	123
P12-Ichikawa [4], 0.0211 µM	115	118	131
P12-Ichikawa [4], 0.0632 µM	114	106	118
P12-Ichikawa [4], 0.19 µM	120	116	120
P12-Ichikawa [4], 0.569 µM	113	107	115
P12-Ichikawa [4], 1.71 µM	117	105	108
P12-Ichikawa [4], 5.12 µM	112	101	116
P12-Ichikawa [4], 15.4 µM	112	95.5	110
P12-Ichikawa [4], 46.1 µM	102	101	108
SEM cells [1], 0.000781 µM	–	102	–
SEM cells [1], 0.00234 µM	–	122	–
SEM cells [1], 0.00702 µM	–	112	–
SEM cells [1], 0.0211 µM	–	123	–
SEM cells [1], 0.0632 µM	–	121	–
SEM cells [1], 0.19 µM	–	114	–
SEM cells [1], 0.569 µM	–	96.6	–
SEM cells [1], 1.71 µM	–	93.6	–
SEM cells [1], 5.12 µM	–	99.9	–
SEM cells [1], 15.4 µM	–	92.8	–
SEM cells [1], 46.1 µM	–	98.4	–

AUC of viability dose-response curve
Details	NOMO1	P12-Ichikawa [3]	SEM cells [2]
HPLM + 10% dialyzed FBS	459	467	441
RPMI 5 mM glucose + 10% FBS	462	440	440
RPMI 5 mM glucose + 10% dialyzed FBS	451	448	457

C[C@]1(CO)CN(c2cc(C(=O)Nc3ccc4c(c3)-c3c(c(C(N)=O)nn3-c3ccc(F)cc3)CC4)c(Cl)cn2)C[C@@]1(C)CO
AUC of viability dose-response curve
Details	NOMO1	P12-Ichikawa [3]	SEM cells [2]
HPLM + 10% dialyzed FBS	446	418	421
RPMI 5 mM glucose + 10% FBS	457	423	317
RPMI 5 mM glucose + 10% dialyzed FBS	445	422	422

C[C@H](NCc1ccc2c(c1)nc(NC(=O)c1ccc(-c3cn[nH]c3)s1)n2CCc1ccccc1)C(C)(C)C
AUC of viability dose-response curve
Details	NOMO1	P12-Ichikawa [3]	SEM cells [2]
HPLM + 10% dialyzed FBS	373	410	248
RPMI 5 mM glucose + 10% FBS	404	403	242
RPMI 5 mM glucose + 10% dialyzed FBS	396	412	224

O=C1NCCc2[nH]c(-c3ccncc3)cc21
SEM cells [1], HPLM + 10% dialyzed FBS
Details	cell viability [%]
0.000781 µM	106
0.00234 µM	118
0.00702 µM	119
0.0211 µM	128
0.0632 µM	133
0.19 µM	140
0.569 µM	147
1.71 µM	149
5.12 µM	149
15.4 µM	41.2
46.1 µM	8.55

AUC of viability dose-response curve
Details	NOMO1	P12-Ichikawa [3]	SEM cells [2]
HPLM + 10% dialyzed FBS	428	433	421
RPMI 5 mM glucose + 10% FBS	439	428	423
RPMI 5 mM glucose + 10% dialyzed FBS	431	426	430
